{"source": "patent US9315532B2", "about": "“Fatty acid carbohydrate hybrid molecules as therapeutic agents and methods thereof” (The Johns Hopkins University, priority 2005, dated 2016)", "format_in_all_cases": "cell-based, human", "key": {"Jurkat cells [1]": {"tested_on": "Jurkat cells", "experiment": "Cell viability assay (trypan blue exclusion)", "details": "200 μM", "protocol": "Jurkat cells (2.0×10^5 cells/mL) were seeded with 1-4 at 200 μM in 6-well T. C. plates. Aliquots of cell suspension (20 μL) were removed on a daily basis diluted with either PBS (20 μL) or trypan blue solution (20 μL) and cell viability was determined by using the standard trypan blue exclusion method; three replicate counts were taken for each condition."}, "Jurkat cells [2]": {"tested_on": "Jurkat cells", "experiment": "Flow cytometry analysis of cell cycle status (PI/RNase A)", "protocol": "The cell cycle arrest induced by butyrate analogs was studied following the standard protocol (49). Briefly, Jurkat cells (2.3×10^5 cells/mL) were incubated with various concentrations of 1 (0, 25, 50, 75, 100, 150 and 200 μM); 2 (200 μM); 3 (200 μM); and 4 (200 μM) for five days. The cells were then harvested, counted, washed twice with PBS, re-suspended in PBS (500 μL), added to a cold solution of 78% aqueous ethanol (4.5 mL) using a glass Pasteur pipette and kept at 2.0° C. for at least 24 h. The fixed cells were centrifuged twice to remove the ethanol completely, re-suspended in propidium iodide (PI)/ribonuclease A (RNase A) staining buffer (BD Pharmingen, Catalog No. 550825, San Diego, Calif.) (500 μL for 1.0×10^6 cells), incubated at 37° C. for 15 min and analyzed by flow cytometry. The cellular aggregates were excluded from single cell populations using an area-width plot (FL2—PT fluorescence) for the cell cycle status determination. At least 10,000 gated events were counted for each determination.\nJurkat cells (2.5×10^5 cells/mL) were incubated with either ethanol (0.2%) or 1 (100 μM or 200 μM). Aliquots of cell suspensions were taken on day 0 and days 2-6, washed with PBS (twice) and fixed in 75% ethanol at 2.0° C. for at least 48 h. The cells were stained with PI/RNase staining buffer and analyzed by flow cytometry as given above."}, "caspase-3 activity": {"tested_on": "caspase-3 activity", "experiment": "Caspase-3 activity assay in Jurkat cells", "details": "for increase of caspase-3 activity: 48 h", "source_text": "Such results are consistent with those expected by the compounds herein."}}}
{"molecule": "CCCC(=O)OC[C@H]1OC(OC(=O)CCC)[C@@H](NC(C)=O)[C@@H](OC(=O)CCC)[C@@H]1OC(=O)CCC", "note": "(stereo partly drawn) [compound 1, 2-Acetylamino-2-deoxy-1,3,4,6-tetra-O-butanoyl-α,β-D-mannopyranoside]", "values": [{"measurement": "reduced cell viability in trypan blue assay", "setting": "Jurkat cells [1]", "result": "exhibited reduced cell viability"}, {"measurement": "cell cycle status at lower concentrations", "setting": "Jurkat cells [2]; Jurkat cells, 0-75 μM, 5 days", "result": "stepwise decrease in G0/G1 accumulation with a concomitant increase in cells at the G2/M stage"}, {"measurement": "population of apoptotic cells (DNA content)", "setting": "Jurkat cells [2]; Jurkat cells, 0-200 μM, five days", "result": "dose dependent increase in population of apoptotic cells"}, {"measurement": "cell cycle status, time course", "setting": "Jurkat cells [2]; Jurkat cells, 100 μM, until day 6", "result": "strong cell cycle inhibition at the G2/M stage"}, {"measurement": "cell cycle status, time course", "setting": "Jurkat cells [2]; Jurkat cells, 200 μM", "result": "accumulated more rapidly at the G2/M stage"}, {"measurement": "cell cycle status / apoptosis", "setting": "Jurkat cells [2]; Jurkat cells, 200 μM, 5 days", "result": "majority of cells treated with 1 appeared to be apoptotic"}, {"measurement": "cells with DNA in the sub G0 range", "setting": "Jurkat cells [2]; Jurkat cells, 200 μM, day 4", "result": "substantial proportion"}, {"measurement": "cells with DNA in the sub G0 range", "setting": "Jurkat cells [2]; Jurkat cells, 200 μM, day 6", "result": "almost complete"}, {"measurement": "concentration above which non-viable cells (sub G0) accumulated", "setting": "Jurkat cells [2]; Jurkat cells, 5 days", "result": "exceeded 75 μM"}, {"measurement": "apoptosis versus cell cycle arrest (summary)", "setting": "Jurkat cells [2]; human cancer cells", "result": "efficiently induced apoptosis"}, {"measurement": "apoptosis by caspase-3 activity assay", "setting": "caspase-3 activity", "result": "dose dependent apoptosis"}, {"measurement": "increase of caspase-3 activity", "setting": "caspase-3 activity; 25 μM", "result": "~4", "unit": "fold"}, {"measurement": "increase of caspase-3 activity", "setting": "caspase-3 activity; 50 μM", "result": "~8", "unit": "fold"}, {"measurement": "increase of caspase-3 activity", "setting": "caspase-3 activity; 100 μM", "result": "~14", "unit": "fold"}]}
